Test results as given in ChEMBL document CHEMBL2163318, “Phenylalanine derivatives as GPR142 agonists for the treatment of type II diabetes” (Bioorg Med Chem Lett, 2012).
Blank lines part the entries; values can stand above or below the molecule they belong to. The source made the active and inactive calls. The rule behind the calls is not given here.

Assays:
[1] = Clearance in rat at 0.67 mg/kg, iv; assay type: ADME, organism-based; design: dose 0.67 mg/kg, route intravenous; settings: in vivo
[2] = AUC in rat at 0.67 mg/kg, iv; assay type: ADME, organism-based; design: dose 0.67 mg/kg, route intravenous; settings: plasma
[3] = Volume of distribution at steady state in rat at 0.67 mg/kg, iv; assay type: ADME, organism-based; design: dose 0.67 mg/kg, route intravenous; settings: in vivo, read-out: Vdss
[4] = Half life in rat at 0.67 mg/kg, iv; assay type: ADME, organism-based; design: dose 0.67 mg/kg, route intravenous; settings: in vivo
[5] = AUC in rat at 2 mg/kg, po; assay type: ADME, organism-based; design: dose 2 mg/kg, route oral; settings: plasma
[6] = Mean residence time in rat at 2 mg/kg, po; assay type: ADME, organism-based; design: dose 2 mg/kg, route oral; settings: in vivo
[7] = Oral bioavailability in rat at 2 mg/kg; assay type: ADME, organism-based; settings: in vivo
[8] = molecular target: T1, Probable G-protein coupled receptor 142 (Homo sapiens) (UniProt Q7Z601); test: Agonist activity at human GPR142 expressed in HEK293 cells assessed as inositol phosphate accumulation after 1 hr by scintillation counting in presence of 100% serum; assay type: functional, cell-based
T1 sequence (whole entry): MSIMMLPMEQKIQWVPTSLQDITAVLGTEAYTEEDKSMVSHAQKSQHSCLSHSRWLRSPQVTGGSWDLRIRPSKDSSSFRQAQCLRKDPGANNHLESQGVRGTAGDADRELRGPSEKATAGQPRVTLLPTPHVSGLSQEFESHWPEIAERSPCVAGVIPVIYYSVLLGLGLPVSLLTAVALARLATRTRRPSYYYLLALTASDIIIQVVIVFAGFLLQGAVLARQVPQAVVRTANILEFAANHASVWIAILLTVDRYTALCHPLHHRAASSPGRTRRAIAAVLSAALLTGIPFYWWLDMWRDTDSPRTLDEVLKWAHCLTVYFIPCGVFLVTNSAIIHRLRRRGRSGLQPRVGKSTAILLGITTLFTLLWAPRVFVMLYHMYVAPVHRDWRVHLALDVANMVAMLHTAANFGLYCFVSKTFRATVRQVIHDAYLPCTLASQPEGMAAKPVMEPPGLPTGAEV

[9] = Metabolic stability of rat microsomes assessed as compound turnover at 1 uM after 30 mins by LC-MS analysis; assay type: ADME, Microsome; settings: read-out: Drug metabolism
[10] = Metabolic stability of human microsomes assessed as compound turnover at 1 uM after 30 mins by LC-MS analysis; assay type: ADME, Microsome; settings: read-out: Drug metabolism
[11] = molecular target: T1, Probable G-protein coupled receptor 142 (Homo sapiens); test: Agonist activity at human GPR142 expressed in HEK293 cells assessed as inositol phosphate accumulation at 10 uM after 1 hr by scintillation counting; assay type: functional, cell-based
[12] = molecular target: T2, Probable G-protein coupled receptor 142 (Homo sapiens, UniProt Q7Z601); test: Agonist activity at human GPR142 expressed in HEK293 cells assessed as inositol phosphate accumulation after 1 hr by scintillation counting; assay type: functional, cell-based
T2 sequence (Q7Z601 whole entry): T1 sequence (whole entry)

[13] = molecular target: T3, Probable G-protein coupled receptor 142 (Mus musculus) (UniProt Q7TQN9); test: Partial agonist activity at mouse GPR142 expressed in HEK293 cells relative to control; assay type: functional, cell-based
T3 sequence (whole entry): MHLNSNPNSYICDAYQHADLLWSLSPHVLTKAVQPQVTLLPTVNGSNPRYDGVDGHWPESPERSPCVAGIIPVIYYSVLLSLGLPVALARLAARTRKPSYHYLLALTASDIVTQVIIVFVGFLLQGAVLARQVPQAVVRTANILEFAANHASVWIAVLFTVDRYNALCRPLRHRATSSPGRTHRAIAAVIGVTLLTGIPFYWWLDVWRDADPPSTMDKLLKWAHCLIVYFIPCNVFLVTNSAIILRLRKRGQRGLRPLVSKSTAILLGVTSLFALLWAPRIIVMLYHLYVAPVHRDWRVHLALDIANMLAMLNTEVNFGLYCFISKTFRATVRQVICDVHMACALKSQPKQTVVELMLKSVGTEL

[14] = Clearance in rat; assay type: ADME, organism-based; settings: in vivo
[15] = Clearance in rat at 0.5 mg/kg, iv; assay type: ADME, organism-based; design: dose 0.5 mg/kg, route intravenous; settings: in vivo
[16] = AUC in rat at 0.5 mg/kg, iv; assay type: ADME, organism-based; design: dose 0.5 mg/kg, route intravenous; settings: plasma
[17] = Volume of distribution at steady state in rat at 0.5 mg/kg, iv; assay type: ADME, organism-based; design: dose 0.5 mg/kg, route intravenous; settings: in vivo, read-out: Vdss
[18] = Half life in rat at 0.5 mg/kg, iv; assay type: ADME, organism-based; design: dose 0.5 mg/kg, route intravenous; settings: in vivo
Mus musculus [19] = test: Antidiabetic activity in B6D2F1 Harlan mouse assessed as increase in serum insulin level at 0.10 mg/kg, sc administered 15 mins prior glucose challenge measured 7.5 mins post glucose challenge by ELISA; assay type: functional, organism-based; design: dose 0.1 mg/kg
Mus musculus [20] = test: Antidiabetic activity in B6D2F1 Harlan mouse assessed as increase in serum insulin level at 0.30 mg/kg, sc administered 15 mins prior glucose challenge measured 7.5 mins post glucose challenge by ELISA; assay type: functional; settings: dose 0.3 mg/kg; route subcutaneous
Mus musculus [21] = test: Antidiabetic activity in B6D2F1 Harlan mouse assessed as increase in serum insulin level at 1 mg/kg, sc administered 15 mins prior glucose challenge measured 7.5 mins post glucose challenge by ELISA; assay type: functional; settings: route subcutaneous
Mus musculus [22] = test: Antidiabetic activity in B6D2F1 Harlan mouse assessed as increase in serum insulin level at 3 mg/kg, sc administered 15 mins prior glucose challenge measured 7.5 mins post glucose challenge by ELISA; assay type: functional; settings: route subcutaneous
Mus musculus [23] = test: Antidiabetic activity in B6D2F1 Harlan mouse assessed as increase in serum insulin level at 5 mg/kg, sc administered 15 mins prior glucose challenge measured 7.5 mins post glucose challenge by ELISA; assay type: functional; settings: route subcutaneous
Mus musculus [24] = test: Antidiabetic activity in B6D2F1 Harlan mouse assessed as increase in serum insulin level at 30 mg/kg, sc administered 15 mins prior glucose challenge measured 7.5 mins post glucose challenge by ELISA; assay type: functional; settings: route subcutaneous
[25] = Clearance in rat at 0.89 mg/kg, iv; assay type: ADME, organism-based; design: dose 0.89 mg/kg, route intravenous; settings: in vivo
[26] = AUC in rat at 0.89 mg/kg, iv; assay type: ADME, organism-based; design: dose 0.89 mg/kg, route intravenous; settings: plasma
[27] = Volume of distribution at steady state in rat at 0.89 mg/kg, iv; assay type: ADME, organism-based; design: dose 0.89 mg/kg, route intravenous; settings: in vivo, read-out: Vdss
[28] = Half life in rat at 0.89 mg/kg, iv; assay type: ADME, organism-based; design: dose 0.89 mg/kg, route intravenous; settings: in vivo
[29] = molecular target: T3, Probable G-protein coupled receptor 142 (Mus musculus); test: Agonist activity at mouse GPR142 expressed in HEK293 cells by inositol phosphate accumulation assay relative to control; assay type: functional, cell-based
[30] = molecular target: T4, Probable G-protein coupled receptor 142 (Mus musculus, UniProt Q7TQN9); test: Agonist activity at mouse GPR142 expressed in HEK293 cells by inositol phosphate accumulation assay; assay type: functional, cell-based
T4 sequence (Q7TQN9 whole entry): T3 sequence (whole entry)

Mus musculus [31] = test: Antidiabetic activity in sc dosed B6D2F1 Harlan mouse assessed as decrease in blood glucose level administered 15 mins prior glucose challenge measured 7.5 mins post glucose challenge by glucometer analysis; assay type: functional, organism-based
Mus musculus [32] = test: Antidiabetic activity in sc dosed B6D2F1 Harlan mouse assessed as increase in serum insulin level administered 15 mins prior glucose challenge measured 7.5 mins post glucose challenge by ELISA; assay type: functional, organism-based
Mus musculus [33] = test: Antidiabetic activity in B6D2F1 Harlan mouse assessed as decrease in blood glucose level at 0.10 mg/kg, sc administered 15 mins prior glucose challenge measured 7.5 mins post glucose challenge by glucometer analysis; assay type: functional, organism-based; design: dose 0.1 mg/kg
Mus musculus [34] = test: Antidiabetic activity in B6D2F1 Harlan mouse assessed as decrease in blood glucose level at 0.30 mg/kg, sc administered 15 mins prior glucose challenge measured 7.5 mins post glucose challenge by glucometer analysis; assay type: functional; design: scale not given: the % may be the effect or the level left; settings: dose 0.3 mg/kg; route subcutaneous
Mus musculus [35] = test: Antidiabetic activity in B6D2F1 Harlan mouse assessed as decrease in blood glucose level at 1 mg/kg, sc administered 15 mins prior glucose challenge measured 7.5 mins post glucose challenge by glucometer analysis; assay type: functional; design: scale not given: the % may be the effect or the level left; settings: route subcutaneous
Mus musculus [36] = test: Antidiabetic activity in B6D2F1 Harlan mouse assessed as decrease in blood glucose level at 3 mg/kg, sc administered 15 mins prior glucose challenge measured 7.5 mins post glucose challenge by glucometer analysis; assay type: functional; design: scale not given: the % may be the effect or the level left; settings: route subcutaneous
Mus musculus [37] = test: Antidiabetic activity in B6D2F1 Harlan mouse assessed as decrease in blood glucose level at 5 mg/kg, sc administered 15 mins prior glucose challenge measured 7.5 mins post glucose challenge by glucometer analysis; assay type: functional; design: scale not given: the % may be the effect or the level left; settings: route subcutaneous
Mus musculus [38] = test: Antidiabetic activity in B6D2F1 Harlan mouse assessed as decrease in blood glucose level at 30 mg/kg, sc administered 15 mins prior glucose challenge measured 7.5 mins post glucose challenge by glucometer analysis; assay type: functional; design: scale not given: the % may be the effect or the level left; settings: route subcutaneous

Structure (SMILES): CNc1cc(-c2nnc(NC(=O)[C@H](Cc3ccccc3)NCc3cscn3)s2)ccn1
clearance [1]: 3.83 mL/min/kg | AUC [2]: 3030 ng·h/mL | Vd [3]: 0.23 L/kg | half-life [4]: 1.2 h | AUC [5]: 1730 ng·h/mL | MRT [6]: 2.36 h | bioavailability [7]: 36% | Activity [8]: inactive | metabolised at 0.5 h, 1 µM [9]: 66% | metabolised at 0.5 h, 1 µM [10]: 58% | Emax [11]: 96% | EC50 [12]: 36 nM | Emax [13]: 37%

Structure (SMILES): O=C(Nc1nnc(-c2ccncc2)s1)[C@H](Cc1ccccc1)NCc1cscn1
clearance [15]: 7.33 mL/min/kg | AUC [16]: 1240 ng·h/mL | Vd [17]: 0.21 L/kg | half-life [18]: 1.2 h | AUC [5]: 480 ng·h/mL | MRT [6]: 1.93 h | bioavailability [7]: 10% | Activity [8]: Active | metabolised at 0.5 h, 1 µM [9]: 10% | metabolised at 0.5 h, 1 µM [10]: 14% | Emax [11]: 115% | EC50 [12]: 86 nM

Structure (SMILES): COc1ncc(-c2ccncc2)cc1NC(=O)[C@H](Cc1ccccc1)NC1(c2ccccn2)CC1
clearance [14]: 21.7 mL/min/kg | Activity [8]: inactive | metabolised at 0.5 h, 1 µM [9]: 54% | metabolised at 0.5 h, 1 µM [10]: 15% | Emax [11]: 123% | EC50 [12]: 350 nM

Continued, in another order:

clearance [14]: 83.3 mL/min/kg | metabolised at 0.5 h, 1 µM [9]: 12% | metabolised at 0.5 h, 1 µM [10]: 10% | Emax [11]: 83% | EC50 [12]: 260 nM
Structure (SMILES): O=C(O)Cn1cc(-c2ccncc2)cc(NC(=O)[C@H](Cc2ccccc2)NC2(c3ccccn3)CC2)c1=O

clearance [25]: 83.3 mL/min/kg | AUC [26]: 177 ng·h/mL | Vd [27]: 1.1 L/kg | half-life [28]: 0.2 h | AUC [5]: 77 ng·h/mL | MRT [6]: 1.79 h | bioavailability [7]: 20% | Emax [29]: 81% | metabolised at 0.5 h, 1 µM [9]: 60% | metabolised at 0.5 h, 1 µM [10]: < 10% | Emax [11]: 127% | EC50 [12]: 54 nM | EC50 [30]: 1.8 nM | EC50 (Mus musculus [31]): 850 nM | EC50 (Mus musculus [32]): 290 nM
Structure (SMILES): O=C(Nc1cc(-c2ccncc2)c[nH]c1=O)[C@H](Cc1ccccc1)NC1(c2ccccn2)CC1
Activity (Mus musculus [19]): inactive | Activity (Mus musculus [20]): 15% | Activity (Mus musculus [21]): 41% | Activity (Mus musculus [22]): 58% | Activity (Mus musculus [23]): 81% | Activity (Mus musculus [24]): 98% | Activity (Mus musculus [31]): Dose-dependent effect | Activity (Mus musculus [32]): Dose-dependent effect | Activity (Mus musculus [33]): inactive | Activity (Mus musculus [34]): 0% | Activity (Mus musculus [35]): 3% | Activity (Mus musculus [36]): 4% | Activity (Mus musculus [37]): 15% | Activity (Mus musculus [38]): 13%

clearance [14]: 51.7 mL/min/kg | metabolised at 0.5 h, 1 µM [9]: 22% | metabolised at 0.5 h, 1 µM [10]: 19% | Emax [11]: 118% | EC50 [12]: 280 nM
Structure (SMILES): CN(C)CCn1cc(-c2ccncc2)cc(NC(=O)[C@H](Cc2ccccc2)NC2(c3ccccn3)CC2)c1=O
